ChEMBL document CHEMBL1773011, “New and more efficient multivalent glyco-ligands for asialoglycoprotein receptor of mammalian hepatocytes” (Bioorg Med Chem, 2011)

Assay: Displacement of Eu-DTPA labeled ASOR from rat primary hepatocytes Asialoglycoprotein receptor after 20 mins by fluorometric analysis
Format: cell-based
Settings: hepatocyte

IC50	Structure (SMILES)
20 nM	CC(=O)NC1C(OCCCCCCNC(=O)CNC(=O)C[C@H](NC(=O)[C@H](CC(=O)NCC(=O)NCCCCCCOC2O[C@@H](CO)[C@@H](O)[C@@H](O)C2NC(C)=O)NC(=O)[C@@H](N)Cc2ccc(O)cc2)C(=O)NCC(=O)NCCCCCCOC2O[C@@H](CO)[C@@H](O)[C@@H](O)C2NC(C)=O)O[C@@H](CO)[C@@H](O)[C@H]1O (single isomer, unassigned)
12 nM	CC(=O)N[C@@H]1C(OCCCCCCNC(=O)C(CCCCNC(=O)OCc2ccccc2)N(CC(=O)NCCCCCCOC2O[C@H](CO)[C@H](O)[C@H](O)[C@H]2NC(C)=O)CC(=O)NCCCCCCOC2O[C@H](CO)[C@H](O)[C@H](O)[C@H]2NC(C)=O)O[C@@H](CO)[C@@H](O)[C@H]1O (stereo in doubt)
> 1000 nM	NCCCCC(C(=O)NCCCCCCOC1O[C@H](CO)[C@@H](O[C@@H]2O[C@H](CO)[C@H](O)[C@H](O)[C@H]2O)[C@H](O)[C@H]1O)N(CC(=O)NCCCCCCOC1O[C@H](CO)[C@@H](O[C@@H]2O[C@H](CO)[C@H](O)[C@H](O)[C@H]2O)[C@H](O)[C@H]1O)CC(=O)NCCCCCCOC1O[C@H](CO)[C@@H](O[C@@H]2O[C@H](CO)[C@H](O)[C@H](O)[C@H]2O)[C@H](O)[C@H]1O (some centres undefined)

Structure (SMILES)	IC50
CC(=O)N[C@H]1C(OCCCCCCNC(=O)CNC(=O)CN(CC(=O)NCC(=O)NCCCCCCOC2O[C@H](CO)[C@H](O)[C@H](O)[C@H]2NC(C)=O)C(CCCCNC(=O)OCc2ccccc2)C(=O)NCC(=O)NCCCCCCOC2O[C@H](CO)[C@H](O)[C@H](O)[C@H]2NC(C)=O)O[C@H](CO)[C@H](O)[C@@H]1O (stereo in doubt)	1 nM
